Data taken from paper PMC5838249, “The Apicomplexa-specific glucosamine-6-phosphate N-acetyltransferase gene family encodes a key enzyme for glycoconjugate synthesis with potential as therapeutic target” (Scientific Reports, 2018).

Key:
TgGNA1 = target: T1, TgGNA1 (Toxoplasma gondii, UniProt A0A7J6K6Y4); assay: HPLC-MS/MS and colorimetric GNA1 assay; type: biochemical; conditions: […] AcCoA, […] GlcN-6P, […] Tris-HCl, […] NaCl, pH […], room temperature
T1 construct: gene TGRH88_028800
T1 sequence (A0A7J6K6Y4 1-516): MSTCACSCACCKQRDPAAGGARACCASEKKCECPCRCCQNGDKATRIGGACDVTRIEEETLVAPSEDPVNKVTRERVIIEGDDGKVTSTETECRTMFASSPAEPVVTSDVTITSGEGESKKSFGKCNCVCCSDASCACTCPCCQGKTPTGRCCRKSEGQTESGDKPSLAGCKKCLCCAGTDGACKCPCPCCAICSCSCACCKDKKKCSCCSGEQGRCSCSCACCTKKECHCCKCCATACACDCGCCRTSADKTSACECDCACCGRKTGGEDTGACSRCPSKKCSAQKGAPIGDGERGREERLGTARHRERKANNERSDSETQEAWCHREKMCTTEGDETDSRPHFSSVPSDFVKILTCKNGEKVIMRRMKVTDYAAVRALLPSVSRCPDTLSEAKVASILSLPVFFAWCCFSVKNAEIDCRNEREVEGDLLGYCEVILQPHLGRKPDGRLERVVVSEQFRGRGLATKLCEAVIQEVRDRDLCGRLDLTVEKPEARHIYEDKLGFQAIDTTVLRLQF

PfGNA1 = target: T2, PfGNA1 (Plasmodium falciparum, UniProt C6KTC5); assay: HPLC-MS/MS GNA1 assay; type: biochemical; conditions: 500 µM AcCoA, 500 µM GlcN-6P, 25 mM Tris-HCl, 150 mM NaCl, pH 7.2, room temperature
T2 construct: gene PF3D7_0629000; deficiently expressed
T2 sequence (C6KTC5 1-291): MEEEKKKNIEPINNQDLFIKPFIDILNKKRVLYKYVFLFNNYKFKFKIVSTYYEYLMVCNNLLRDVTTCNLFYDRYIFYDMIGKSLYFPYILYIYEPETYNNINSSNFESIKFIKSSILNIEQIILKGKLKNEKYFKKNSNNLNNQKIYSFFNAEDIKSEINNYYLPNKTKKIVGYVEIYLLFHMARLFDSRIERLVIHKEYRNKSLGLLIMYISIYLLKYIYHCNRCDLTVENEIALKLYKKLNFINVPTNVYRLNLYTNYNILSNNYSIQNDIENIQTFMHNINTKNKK

N[C@H]1C(O)O[C@H](COP(=O)(O)O)[C@@H](O)[C@@H]1O (stereo partly shown) [GlcN-6P]
HPLC-MS/MS and colorimetric GNA1 assay (TgGNA1): TgGNA1 distinctly acetylated GlcN-6P | HPLC-MS/MS GNA1 assay (PfGNA1): PfGNA1 and TaGNA1 were deficiently expressed, they also showed residual activity as detected by HPLC-MS/MS

CC(=O)SCCNC(=O)CCNC(=O)[C@H](O)C(C)(C)COP(=O)(O)OP(=O)(O)OC[C@H]1O[C@@H](n2cnc3c(N)ncnc32)[C@H](O)[C@@H]1OP(=O)(O)O [AcCoA]
HPLC-MS/MS and colorimetric GNA1 assay (TgGNA1): The enzymes used GlcN-6P as substrate and AcCoA as donor to produce GlcNAc-6P | HPLC-MS/MS GNA1 assay (PfGNA1): PfGNA1 and TaGNA1 were deficiently expressed, they also showed residual activity as detected by HPLC-MS/MS
